From patent US20230288411A1, “POLYPEPTIDE, MULTIMER, SOLID PHASE, MEASUREMENT METHOD FOR TEST SUBSTANCE, AND REAGENT KIT” (SYSMEX CORPORATION, priority 2020, published 2023)

How the values were obtained:
D-biotin-labeled albumin = assay: SPR (Biacore T200) binding evaluation to D-biotin-labeled albumin; set-up: species or system bovine; settings: analyte flowed at 30 μL/min up to 100 nM, single cycle method, albumin immobilized on sensor chip
Method: (§1) A binding ability of D-streptavidin obtained in Example 1 to D-biotin as a natural form and L-biotin as an optical isomer of D-biotin was evaluated by an intermolecular interaction analyzer (Biacore T200) using SPR as a measurement principle.
An N,N-dimethylformamide solution (16.3 μL) containing 10 mg/mL D-biotin-AC5-OSu (manufactured by DOJINDO LABORATORIES) was added to 2.8 mL of 50 mg/mL bovine serum albumin/0.1 M phosphate buffer solution (pH 7.5), and the mixture was stirred, then allowed to stand at 35° C. for 1 hour. Thereafter, desalting was performed by PD-10 (17085101, manufactured by Cytiva) equilibrated with a 0.1 M phosphate buffer (pH 7.5), and D-biotin-labeled albumin was recovered. The number of labeled D-biotin per molecule of albumin by HABA method was 0.4.
Bovine serum albumin was immobilized on flow cells 1 and 3 of a CMS sensor chip (manufactured by Cytiva) of a Biacore T200 system at a target level of 400 RU by an amine coupling method with an amine coupling kit (Cytiva). […]
(§2) Using HBS-EP+(manufactured by Cytiva) as a running buffer, the prepared D-tamavidin (trademark) 2 was flowed into each flow cell at a flow rate of 30 μL/min in the range of 100 pM to 100 nM by a single cycle method, and binding and dissociation to D-biotin or L-biotin was evaluated by Biacore T200 Evaluation Software (manufactured by Cytiva).

L-biotin-labeled albumin = assay: SPR (Biacore T200) binding evaluation to L-biotin-labeled albumin; set-up: species or system bovine; settings: analyte flowed at 30 μL/min up to 100 nM, single cycle method, albumin immobilized on sensor chip
Method: as §1
Similarly, L-biotin-labeled albumin was prepared using L-biotin-AC5-OSu [see (Amidation of L-biotin) described in Example 3 above].
Bovine serum albumin was immobilized on flow cells 1 and 3 of a CMS sensor chip (manufactured by Cytiva) of a Biacore T200 system at a target level of 400 RU by an amine coupling method with an amine coupling kit (Cytiva). Further, L-biotin-labeled albumin and D-biotin-labeled albumin were immobilized at a target level of 400 RU to flow cells 2 and 4, respectively, similarly by an amine coupling method. Blocking was performed in each flow cell with 1 M ethanolamine solution, pH 8.5 (manufactured by Cytiva). […]
as §2

| binding to D-biotin-labeled albumin (SPR sensorgram) (D-biotin-labeled albumin) | binding to L-biotin-labeled albumin (SPR sensorgram) (L-biotin-labeled albumin) | Substance |
| --- | --- | --- |
| very strongly bound | – | natural core streptavidin: commercially available tetrameric natural core streptavidin (manufactured by Roche) [reference compound] |
| not substantially bound | very strongly bound | D-streptavidin: tetrameric polypeptide of 13th to 139th amino acids of SEQ ID NO: 1 composed of D-amino acid residues |
